Assay results reported in ChEMBL document CHEMBL1137182, “Ligand conformation has a definitive effect on 5-HT1A and serotonin reuptake affinity” (Bioorg Med Chem Lett, 2004).

Columns and labels:
[1] = target: Sodium-dependent serotonin transporter (Homo sapiens, UniProt P31645); experiment: Inhibitory activity against human- serotonin reuptake transmitter using [3H]-citalopram as a radioligand
[2] = Inhibitory activity against 5-hydroxytryptamine receptor 1A using (+/-)-[3H]-8-hydroxydipropylaminotetralin; parameters: species or system Homo sapiens

Sodium-dependent serotonin transporter, sequence (P31645 whole entry): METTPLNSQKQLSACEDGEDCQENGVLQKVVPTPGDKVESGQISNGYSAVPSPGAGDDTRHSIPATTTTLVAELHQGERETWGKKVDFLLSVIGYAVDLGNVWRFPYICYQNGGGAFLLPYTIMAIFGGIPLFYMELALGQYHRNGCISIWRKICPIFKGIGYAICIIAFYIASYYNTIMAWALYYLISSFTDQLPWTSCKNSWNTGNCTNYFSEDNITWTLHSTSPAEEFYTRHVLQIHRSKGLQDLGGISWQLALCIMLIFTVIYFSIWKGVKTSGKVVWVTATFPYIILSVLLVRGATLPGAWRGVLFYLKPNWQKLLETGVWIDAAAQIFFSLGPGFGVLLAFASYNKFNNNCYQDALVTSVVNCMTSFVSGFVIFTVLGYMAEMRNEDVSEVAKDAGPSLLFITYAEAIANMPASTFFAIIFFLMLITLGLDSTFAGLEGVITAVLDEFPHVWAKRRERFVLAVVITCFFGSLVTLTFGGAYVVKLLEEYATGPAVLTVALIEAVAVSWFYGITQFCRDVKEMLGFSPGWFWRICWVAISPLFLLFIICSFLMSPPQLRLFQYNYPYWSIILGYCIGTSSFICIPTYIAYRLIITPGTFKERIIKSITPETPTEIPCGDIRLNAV

IC50 [1] | IC50 [2] | Compound
23 nM | > 1000 nM | Oc1nc2cc3c(cc2c2c1[C@@H](N1CCN(Cc4ccccc4I)CC1)CCC2)OCO3
480 nM | 12 nM | O=C1O[C@]2(CC[C@@H](N3CCC(Cc4ccccc4F)CC3)CC2)c2ccc3c(c21)OCCO3
91 nM | 2.4 nM | COc1ccc(Br)c(CC2CCN([C@H]3CC[C@]4(CC3)OC(=O)c3c5c(ccc34)OCO5)CC2)c1
92 nM | 2.3 nM | O=C1O[C@]2(CC[C@@H](N3CCC(Cc4cc(Cl)ccc4Cl)CC3)CC2)c2ccc3c(c21)OCO3
250 nM | 22 nM | O=C1O[C@]2(CC[C@@H](N3CCC(Cc4cc(F)ccc4F)CC3)CC2)c2ccc3c(c21)OCO3
48 nM | 9.6 nM | O=C1O[C@]2(CC[C@@H](N3CCN(Cc4ccccc4I)CC3)CC2)c2ccc3c(c21)OCO3
400 nM |  | COc1ccc(F)c(CC2CCN([C@H]3CC[C@]4(CC3)OC(=O)c3c5c(ccc34)OCO5)CC2)c1
100 nM | 19 nM | O=C1O[C@]2(CC[C@@H](N3CCC(Cc4ccccc4Cl)CC3)CC2)c2ccc3c(c21)OCCO3
45 nM | 9.6 nM | O=C1O[C@]2(CC[C@@H](N3CCC(Cc4ccccc4Br)CC3)CC2)c2ccc3c(c21)OCO3
82 nM | 14 nM | O=C1O[C@]2(CC[C@@H](N3CCC(Cc4cc(F)ccc4Br)CC3)CC2)c2ccc3c(c21)OCO3
430 nM | 11 nM | COc1ccc(F)c(CC2CCN([C@H]3CC[C@]4(CC3)OC(=O)c3c5c(ccc34)OCCO5)CC2)c1
510 nM | 43 nM | O=C1O[C@]2(CC[C@@H](N3CCC(Cc4ccccc4C(F)(F)F)CC3)CC2)c2ccc3c(c21)OCCO3
180 nM | 67 nM | O=C1O[C@]2(CC[C@@H](N3CCC(Cc4ccccc4C(F)(F)F)CC3)CC2)c2ccc3c(c21)OCO3
54 nM | 9.6 nM | O=C1O[C@]2(CC[C@@H](N3CCN(Cc4ccccc4I)CC3)CC2)c2ccc3c(c21)OCCO3
77 nM | 11 nM | O=C1O[C@]2(CC[C@@H](N3CCC(Cc4cc(F)ccc4Br)CC3)CC2)c2ccc3c(c21)OCCO3
73 nM | 9.8 nM | O=C1O[C@]2(CC[C@@H](N3CCC(Cc4ccccc4Br)CC3)CC2)c2ccc3c(c21)OCCO3
110 nM | 14 nM | O=C1O[C@]2(CC[C@@H](N3CCC(Cc4cc(F)ccc4F)CC3)CC2)c2ccc3c(c21)OCCO3
410 nM | 14 nM | O=C1O[C@]2(CC[C@@H](N3CCC(Cc4ccccc4F)CC3)CC2)c2ccc3c(c21)OCO3
150 nM | 6.7 nM | COc1ccccc1CC1CCN([C@H]2CC[C@]3(CC2)OC(=O)c2c4c(ccc23)OCO4)CC1
140 nM | 10 nM | O=C1O[C@]2(CC[C@@H](N3CCC(Cc4ccccc4Cl)CC3)CC2)c2ccc3c(c21)OCO3
59 nM | 4.3 nM | COc1ccccc1CC1CCN([C@H]2CC[C@]3(CC2)OC(=O)c2c4c(ccc23)OCCO4)CC1
5 nM | 440 nM | Oc1nc2cc3c(cc2c2c1[C@@H](N1CCC(Cc4cc(F)ccc4F)CC1)CCC2)OCO3 (stereo in doubt; 3o)
14 nM | 450 nM | Oc1nc2cc3c(cc2c2c1[C@@H](N1CCC(Cc4cc(F)ccc4F)CC1)CCC2)OCO3 (stereo in doubt; 4o)
